Measured values taken from patent publication US20070265164A1, “Active Substances for Increasing Pathogenic Defense in Plants and Methods for the Detection Thereof” (Bayer Cropscience GmbH, priority 2004, published 2007).

Columns and labels:
Assay type in all cases: in vivo
Design in all cases: fold induction: dose or concentration left out as unconfirmed
[1] = test system: Contig9556_at, 12-oxophytodienoate reductase 3; assay: GEP, barley DNA chip, probe set 1.8; details: Hordeum vulgare, topical, read-out: Expression value, 1.8 Contig9556_at; for fold induction at 150 g/ha: 6 h; for fold induction: barley leaves 6 h after spray application, rates of Table 1 (S7 500), median induction factor vs control
Protocol: (§1) Barley plants (cv. Baronesse) were grown in compost-filled pots (diameter: 10 cm) for 10 days in a controlled-environment cabinet under defined light, humidity and temperature conditions (white light, 70% atmospheric humidity, 24° C.). At the time of spray application, the seedlings were approximately 15 cm in size. The test substances selected in this example were molecules which differ markedly in their structure and which have a well documented pronounced safener effect, and other molecules which are known from the literature to have an effect on plant stress and pathogen tolerance (Table 1). The substances were prepared as stock solutions in DMSO (dimethyl sulfoxide) at c=10 mg/ml). This was used for preparing dilutions in water supplemented with 0.2% Agrotin (comprises polyvinyl alcohol, silicones, polysaccharides and pH regulators, manufacturer: Bayer CropScience AG, Monheim, Germany), as wetter, to give the application rates shown in the table. The amount of liquid for the spray application was 800 μl per pot, corresponding to 800 l/ha. For each 800 μl of spray mixture, 16 μl of EC premix: diacetone alcohol=1:6 were additionally added as formulation auxiliaries. The substances listed in Table 1 were applied to the leaves by means of a pneumatic spray pistol. Each substance was sprayed as 2 dosages, and all experiments were carried out as replicates (2 pots per substance). Sprayings with blank formulation without active ingredient were carried out as controls. After 6 hours, the leaves were harvested, frozen in liquid nitrogen and stored at −80° C. until further use. The labeled RNA probes for the DNA chip hybridization were prepared as described in the protocols (Expression Analysis, Technical Manual) from Affymetrix (Affymetrix Inc., 3380 Central Expressway, Santa Clara, Calif., USA). First, total RNA was isolated from in each case 500 mg of the harvested leaves. In each case 10 μg of total RNA was used for the first-strand and second-strand cDNA synthesis. The cDNA was amplified with T7 polymerase and simultaneously labeled with biotin-UTP. In each case, 20 μg of this biotinylated cDNA was employed for the hybridization of the barley genome array (Gene Chip Barleyl, order No.: 511012) from Affymetrix. This DNA microarray comprises DNA sequences of 22 840 genes which are composed of a total of 400 000 EST sequences. Thereafter, the DNA microarrays were washed in the Affymetrix Fluidics Station, stained with streptavidin/phycoerythrin (Molecular Probes, P/N S-866) and scanned with the matching Agilent Laser Scanner (Agilent Gene Array Scanner). The fluorescent data obtained were analyzed with the software Microarray Suite 5 from Affymetrix. After the quality had been checked, all DNA chip analyses were stored in a database. To determine the relative expression values for genes (induction factors, repression factors), test and control chips were compared with each other, and the scoring function set by the Affymetrix software was used as the basis. The 2 biological replications of one experiment were compared in each case with 2 control chips (blank formulation), and the 4 expression values obtained for each gene were used for calculating the median. These medians are shown in the results tables as induction factors. Similarity comparisons of expression profiles from different experiments and cluster analyses were carried out using the software GeneMaths 1.5 from Applied Maths (Applied Maths, Keistraat 120, 9830 Sint-Martens-Latem, Belgium).
(§2) Gene groups from specific metabolic pathways and signal transduction chains were put together by key word search in the annotations, of the genes, which were also provided by Affymetrix, and by Blast analyses (homology comparisons) of the DNA target sequences, i.e. of the positive sequence (identified on the basis of a modified expression profile) identified on the DNA chip, using gene sequences from other organisms, preferably plant organisms, with characterized functions. […]

[2] = test system: HI02E21u_s_at, Lipoxygenase (EC 1.13.11.12); assay: GEP, barley DNA chip, probe set 1.2; details: Hordeum vulgare, topical, read-out: Expression value, 1.2 HI02E21u_s_at; for fold induction at 150 g/ha: 6 h; for fold induction: barley leaves 6 h after spray application, rates of Table 1 (S7 500), median induction factor vs control
Protocol: as §1, §2

[3] = test system: Contig34_s_at, Putative proteinase inhibitor; assay: GEP, barley DNA chip, probe set 2.2; details: Hordeum vulgare, topical, read-out: Expression value, 2.2 Contig34_s_at; for fold induction at 150 g/ha: 6 h; for fold induction: barley leaves 6 h after spray application, rates of Table 1 (S7 500), median induction factor vs control
Protocol: as §1, §2

[4] = test system: Contig12574_at, Putative lipoxygenase; assay: GEP, barley DNA chip, probe set 1.11; details: Hordeum vulgare, read-out: Expression value, 1.11 Contig12574_at; for fold induction at 150 g/ha: 6 h; for fold induction: barley leaves 6 h after spray application, rates of Table 1 (S7 500), median induction factor vs control
Protocol: as §1, §2

[5] = test system: Contig5369_at, Pathogen-related protein; assay: GEP, barley DNA chip, probe set 4.2; details: Hordeum vulgare, topical, read-out: Expression value, 4.2 Contig5369_at; for fold induction at 150 g/ha: 6 h; for fold induction: barley leaves 6 h after spray application, rates of Table 1 (S7 500), median induction factor vs control
Protocol: as §1, §2

[6] = test system: Contig3096_s_at, Allene oxide synthase; assay: GEP, barley DNA chip, probe set 1.16; details: Hordeum vulgare, topical, read-out: Expression value, 1.16 Contig3096_s_at; for fold induction at 150 g/ha: 6 h; for fold induction: barley leaves 6 h after spray application, rates of Table 1 (S7 500), median induction factor vs control
Protocol: as §1, §2

[7] = test system: Contig2326_s_at, 12-oxophytodienoic acid reductase; assay: GEP, barley DNA chip, probe set 1.18; details: Hordeum vulgare, topical, read-out: Expression value, 1.18 Contig2326_s_at; for fold induction at 150 g/ha: 6 h; for fold induction: barley leaves 6 h after spray application, rates of Table 1 (S7 500), median induction factor vs control
Protocol: as §1, §2

[8] = test system: Contig2337_at, 12-oxophytodienoate reductase (OPR1); assay: GEP, barley DNA chip, probe set 1.20; details: Hordeum vulgare, topical, read-out: Expression value, 1.20 Contig2337_at; for fold induction at 150 g/ha: 6 h; for fold induction: barley leaves 6 h after spray application, rates of Table 1 (S7 500), median induction factor vs control
Protocol: as §1, §2

[9] = test system: Contig2990_at, Chitinase (EC 3.2.1.14); assay: GEP, barley DNA chip, probe set 5.1; details: Hordeum vulgare, topical, read-out: Expression value, 5.1 Contig2990_at; for fold induction at 150 g/ha: 6 h; for fold induction: barley leaves 6 h after spray application, rates of Table 1 (S7 500), median induction factor vs control
Protocol: as §1, §2

[10] = test system: Contig1737_at, Probable lipoxygenase; assay: GEP, barley DNA chip, probe set 1.15; details: Hordeum vulgare, topical, read-out: Expression value, 1.15 Contig1737_at; for fold induction at 150 g/ha: 6 h; for fold induction: barley leaves 6 h after spray application, rates of Table 1 (S7 500), median induction factor vs control
Protocol: as §1, §2

[11] = test system: Contig2330_x_at, 12-oxophytodienoic acid reductase; assay: GEP, barley DNA chip, probe set 1.19; details: Hordeum vulgare, topical, read-out: Expression value, 1.19 Contig2330_x_at; for fold induction at 150 g/ha: 6 h; for fold induction: barley leaves 6 h after spray application, rates of Table 1 (S7 500), median induction factor vs control
Protocol: as §1, §2

[12] = test system: Contig2631_at, Lipase-like Protein (jasmonic acid biosynthesis gene); assay: Gene expression profiling (GEP), barley DNA chip, probe set 1.1; details: Hordeum vulgare; for fold induction at 150 g/ha: 6 h, read-out: Expression value, 1.1 Contig2631_at; for fold induction: barley leaves 6 h after spray application, rates of Table 1 (S7 500), median induction factor vs control
Protocol: as §1, §2

[13] = test system: Contig15_a_at, GDSL-motif lipase/hydrolase-like protein; assay: GEP, barley DNA chip, probe set 1.9; details: Hordeum vulgare, topical, read-out: Expression value, 1.9 Contig15_a_at; for fold induction at 150 g/ha: 6 h; for fold induction: barley leaves 6 h after spray application, rates of Table 1 (S7 500), median induction factor vs control
Protocol: as §1, §2

Compound: CCOC(=O)C1=NOC(c2ccccc2)(c2ccccc2)C1 [S3, Isoxadifen-ethyl]
- fold induction at 150 g/ha [1]: 3.03
- fold induction at 150 g/ha [2]: 40.8
- fold induction at 150 g/ha [3]: 1
- fold induction at 150 g/ha [4]: 2.81
- fold induction at 150 g/ha [5]: 4.76
- fold induction at 150 g/ha [6]: 1
- fold induction at 150 g/ha [7]: 1
- fold induction at 150 g/ha [8]: 1
- fold induction at 150 g/ha [9]: 2.77
- fold induction at 150 g/ha [10]: 1
- fold induction at 150 g/ha [11]: 1
- fold induction at 150 g/ha [12]: 97.7
- fold induction at 150 g/ha [13]: 2.97

Compound: NC(=O)c1ccc(C(F)(F)F)nc1O [S6]
- fold induction [1]: 1
- fold induction [2]: 1
- fold induction [3]: 1
- fold induction [4]: 1
- fold induction [5]: 1
- fold induction [6]: 1
- fold induction [7]: 1
- fold induction [8]: 1
- fold induction [9]: 1
- fold induction [10]: 1
- fold induction [11]: 2.55
- fold induction [12]: 1
- fold induction [13]: 1

Compound: O=C(O)c1cc(Cl)nc(Cl)c1 [S9]
- fold induction at 150 g/ha [1]: 1
- fold induction at 150 g/ha [2]: 3.03
- fold induction at 150 g/ha [3]: 1
- fold induction at 150 g/ha [4]: 1
- fold induction at 150 g/ha [5]: 1
- fold induction at 150 g/ha [6]: 1
- fold induction at 150 g/ha [7]: 1
- fold induction at 150 g/ha [8]: 1
- fold induction at 150 g/ha [9]: 2.39
- fold induction at 150 g/ha [10]: 1
- fold induction at 150 g/ha [11]: 1
- fold induction at 150 g/ha [12]: 1
- fold induction at 150 g/ha [13]: 1

Compound: CCCCCC(C)OC(=O)COc1ccc(Cl)c2cccnc12 (stereo not shown) [S4, Cloquintocet-mexyl]
- fold induction [1]: 1
- fold induction [2]: 1
- fold induction [3]: 1
- fold induction [4]: 1
- fold induction [5]: 1
- fold induction [6]: 1
- fold induction [7]: 2.45
- fold induction [8]: 1
- fold induction [9]: 1
- fold induction [10]: 1
- fold induction [11]: 2.83
- fold induction [12]: 1
- fold induction [13]: 1
